{"source": "patent US20070072815A1", "about": "“Methods and kits to increase the efficiency of oligonucleotide-directed nucleic acid sequence alteration” (priority 2004, published 2007)", "key": {"[1]": {"test_system": "mutant eGFP gene in DLD-1-1 cells", "experiment": "eGFP gene correction (oligonucleotide-directed sequence alteration) in DLD-1-1 cells, FACS readout", "format": "cell-based", "settings": "for effect on correction when added after electroporation: recovery period, AraC 2-48 hrs, aphidicolin 6 μM at 2, 6 and 24 hrs", "description": "Cell line and culture conditions: DLD-1 cells are obtained from ATCC (American Type Cell Culture, Manassas, Va.). DLD-1 integrated clone 1 (DLD-1-1) is obtained by integration of the vector pEGFP-N3 containing a single point mutation (TAG) in the eGFP gene, as described in copending U.S. patent application Ser. No. 10/986,418, filed Nov. 10, 2004 (“Mammalian Cell Lines for Detecting, Monitoring, and Optimizing Oligonucleotide-Mediated Chromosomal Sequence Alteration”). Cells are grown in RPMI 1640 medium with 2 mM glutamine, 4.5 g/L glucose, 10 mM HEPES, 1 mM sodium pyruvate and supplemented with 10% FBS. Cells are maintained at 5% CO2, 37° C. and under selection in 200 μg/ml G418 (Gibco, Invitrogen Co., Carlsbad, Calif.).\neGFP gene correction: Cells grown in complete medium supplemented with 10% FBS are trypsinized and harvested by centrifugation. The cell pellet is resuspended in serum-free medium at a density of 1×10^6 cells/100 μl and transferred to a 4 mm gap cuvette (Fisher Scientific, Pittsburgh, Pa.). The oligonucleotide is then added at a concentration of 4 μM and the cells are electroporated (LV, 250V, 13 msec, 2 pulses, 1 second interval) using a BTX ECM830 apparatus (BTX, Holliston, Mass.). The cells are then transferred to a 60 mm dish containing fresh medium supplemented with 10% FBS and incubated for 48 hrs at 37° C. before harvesting for FACS analysis.\nThe percentage of converted cells in a whole population is then calculated by CellQuest™ (Becton Dickinson) and GFP/PI programs. The correction efficiency is determined by dividing the number of eGFP positive cells by the number of cells analyzed in each experiment (usually 50,000 cells). Each clone is tested three times to determine the standard deviation of the correction efficiency, with standard deviation calculated using Microsoft Excel.\nThe experimental strategy involves the introduction of oligonucleotides into DLD-1-clone 1 cells by electroporation followed by phenotypic readout of the corrected eGFP gene, 48 hours later. The correcting oligonucleotide (EGFP3S/72NT) is 72 bases in length (72-mer), complementary to the non-transcribed strand of the mutant eGFP gene but designed to create a single mismatch in the third base of codon 67 (see FIG. 1A). It directs conversion of a TAG→TAC codon which enables phenotypic expression of eGFP, which can be detected by FACS. FIG. 1B outlines the sequence of the target gene, the 72-mer and a nonspecific 74-mer used as a control.\nOligonucleotide-Directed Sequence Alteration: The resulting synchronized populations of cells, and asynchronous controls, are grown in complete medium supplemented with 10% FBS and trypsinzed and harvested by centrifugation at 1500 rpm for 5 minutes. The cell pellet is resuspended in fresh serum-free medium at a density of 2×10^6 cells/100 μl. The entire cell suspension is mixed with 20 μg of EGFP/72NT and transferred into a 4 mm gap cuvette (Fisher Scientific, Pittsburgh, Pa., USA) followed by electroporation with two 250V pulses, each 13 ms in duration, with one second between pulses, unipolar.\nCells are incubated at room temperature for 30 min. […] Frequency of converted cells are calculated by CellQuest™ and GFP/PI programs.\nDouble Thymidine Block: Cells are synchronized in G1 or at the G1/S border by a double thymidine block. Twenty-four hours prior to the addition of any agent (HU, etc.), cells are plated at a density of 0.5×10^6 cells per 100 mm dish, followed by incubation in 2 mM thymidine (Sigma) for 16 hrs, washed and released in fresh medium for 10 hrs, then incubated in 2 mM thymidine for an additional 15 hrs.\nFACS is then used to analyze 50,000 cells from each population to determine the percentage of cells expressing functional eGFP, as described in Example 1."}, "DLD-1-1 cells [2]": {"test_system": "DLD-1-1 cells", "experiment": "BrdU incorporation (actively replicating forks)", "format": "cell-based", "settings": "for BrdU uptake (cells actively incorporating DNA bases): 24 hour treatment, 500 μM ddC, ddI or AraC (FIG. 17B)", "description": "(§1) For cell cycle analysis, 1×10^6 cells are plated 24 hrs before the treatment with drugs and after 24 hrs of treatment, cells are trypsinized, resuspended in 300 μl cold PBS and fixed by adding 700 μl cold ethanol. Cells are then resuspended in 1 ml of PBS containing 500 µg/ml RNaseA and […] propidium iodide and analyzed for DNA content.\n(§2) The resulting cells are then either analyzed by FACS, or the percentage of cells in S phase is determined by BrdU incorporation. FIG. 8 presents the results of both sets of experiments.\nAs stated above, the lack of stimulation observed in cells treated with AraC could be explained by the reduced number of cells passing through S phase or the absence of actively replicating forks. If true, we might predict that a rise in the gene repair frequency would appear if the cells are released from the AraC block and replication forks are allowed to restart prior to the electroporation of the oligonucleotide. We test this prediction by treating the cells with AraC for 24 hrs and then releasing them by washing out the drug at specific times. We measure the level of BrdU incorporation at the time of electroporation and evaluate the frequency of correction 48 hrs later."}, "DLD-1-1 cells [3]": {"test_system": "DLD-1-1 cells", "experiment": "Cell cycle analysis (DNA content by FACS), cells in S phase", "format": "cell-based", "description": "as §1\nThe effect of cell cycle on the efficiency of ODSA is assessed by synchronizing a population of DLD-1-1 cells with mimosine, which arrests cells in early S phase, and serum starvation. Cells are seeded at a density of 0.8×10^6 per 100 mm dish, attached for 20 hours and then cultured in RMPI-1640 medium containing 0.2% fetal bovine serum (FBS). These cells are grown for 48 hours followed by treatment with 0.1 mM mimosine (Sigma, St. Louis, Mo., USA) for 20 hours. Cell are washed twice with PBS and released at various times into fresh medium complemented with 10% FBS before electroporation. Cells are rinsed once with PBS, trypsinized and harvested by centrifugation and resuspended in PBS containing 10 μg/ml propidium iodide, 0.03% Triton-100 and 1 mg/ml RNase. Cells are incubated at room temperature for 1 hour before the measurement of DNA content by FACSCalibur™ flow cytometer. The percentage of cells at various stages of the cell cycle is determined by ModFit L™ software (Verity Software House, Inc., Topsham, Me., USA).\nas §2"}, "[4]": {"test_system": "α-galactosidase A (GLA) activity in Fabry's cell line DMN-1", "experiment": "GLA activity in Fabry's cells after ODSA", "format": "cell-based, human", "text": "Cell line DMN-1, a human fibroblast cell line derived from a human patient with Fabry's disease, is obtained from the National Institutes of Health (NIH). These cells are used to measure the efficiency of correction of a mutant allele of α-galactosidase A (GLA) using methods of the present invention. The specific disease-causing mutation in the Fabry's cell line used herein is A143P, caused by a G→C mutation in the gene. See Branton et al., Medicine (Baltimore) (2002) 81(2): 122-38.\nAll four oligonucleotides are used to effect ODSA substantially as described in Example 1, with the exception that cells are transfected with oligonucleotides, rather than electroporated. Oligos are added at 5 μg, 10 μg or 30 μg per reaction. After ODSA is performed, cells are cultured and assayed for GLA activity according to the method of Brady, as described in Medin et al., Proc. Natl. Acad. Sci. (USA) (1996) 93:7917-22, the disclosure of which is incorporated herein by reference in its entirety. The GLA activity is used as a measure of gene correction by comparing the activities in treated versus untreated cultures. The correction efficiency is subsequently confirmed by sequencing of the locus of mutation in a number of treated cells.\n[…] Unlike the experiments involving correction of eGFP in DLD-1-1 cells described in Example 1, however, certain of the agents (VPA, caffeine, TSA) in the experiments in this example are not added before transfection, but are instead added only after transfection, during the recovery period.\nThe means of introducing oligonucleotide into the target cells also differs from previous examples, with transfection in the presence of the transfection enhancing agent FuGENE™ 6 (FG) (Roche Diagnostics Corp., Indianapolis, Ind., USA) being used rather than electroporation. Each transfection reaction includes 100 μl of target cells and 12 μl of FG unless otherwise indicated, despite the fact that FG is not explicitly listed for each datapoint in the relevant figures. Otherwise the procedures used in the DLD-1-1 experiments and the Fabry's experiments are similar.\nThe results of a further series of experiments are shown at FIG. 15D, where the data are presented as GLA activity as nanomolar (nM) concentration of the product of the GLA assay generated per hour per unit protein concentration (as are the data in FIGS. D and E)."}, "[5]": {"settings": "24 hour treatment, 500 μM ddC, ddI or AraC (FIG. 17A)"}, "[6]": {"settings": "2-5 μM VPA in the recovery phase"}, "[7]": {"settings": "serum starvation + mimosine, 8 hours after release"}}, "note": "Entries after “also recorded” stand apart in the source; their conditions may differ."}
{"compound": "C[C@@]1(CO)[C@H](O)CC[C@@]2(C)[C@H]1CC[C@H]1C[C@@H]3C[C@@]12CC[C@]3(O)CO", "note": "[Aphidicolin, aphidicolin]", "values": [{"measurement": "effect on correction when added after electroporation", "setting": "[1]", "result": "low level of correction"}]}
{"compound": "Nc1ccn([C@@H]2O[C@H](CO)[C@@H](O)[C@@H]2O)c(=O)n1", "note": "[AraC, 1-β-D-arabinofuransylcytosine]", "values": [{"measurement": "BrdU uptake (cells actively incorporating DNA bases)", "setting": "DLD-1-1 cells [2]", "result": "essentially zero"}, {"measurement": "time after release at which elevation in BrdU incorporation is observed", "setting": "DLD-1-1 cells [2]; AraC 24 hrs, then washed out", "result": "≤ 2", "unit": "h"}, {"measurement": "cells in S phase", "setting": "DLD-1-1 cells [3]; [5]", "result": 26, "unit": "%"}, {"measurement": "reduction in S phase cells", "setting": "DLD-1-1 cells [3]; AraC at 20 μM and 250 μM", "result": 9, "unit": "%"}, {"measurement": "effect on correction levels", "setting": "[1]; AraC 5 μM to 250 μM, 24 hrs before electroporation", "result": "no enhancement in correction levels; also recorded: significantly insignificant effect"}, {"measurement": "time post release at which gene repair activity reaches maximal level", "setting": "[1]; AraC 24 hrs, then washed out before electroporation", "result": 8, "unit": "h"}, {"measurement": "effect on correction when added after electroporation", "setting": "[1]", "result": "correction levels drop substantially"}]}
{"compound": "CC[C@@]1(O)C(=O)OCc2c1cc1n(c2=O)Cc2cc3ccccc3nc2-1", "note": "[CPT, camptothecin]", "values": [{"measurement": "GLA activity versus no treatment control", "setting": "[4]; 7.5 nM CPT during recovery", "result": "approximately six-fold"}, {"measurement": "GLA activity", "setting": "[4]; 7.5 nM CPT during recovery, 49T/gg", "result": "26.84 nM product per hour per unit p"}, {"measurement": "effect on GLA activity", "setting": "[4]; CPT 7.5 nM (FIG. 15D summary)", "result": "more than doubles GLA activity"}, {"measurement": "effect on correction efficiency", "setting": "[1]; CPT pretreatment at 30-100 nM", "result": "triples correction efficiency"}]}
{"compound": "CC(/C=C/C(=O)NO)=C\\[C@@H](C)C(=O)c1ccc(N(C)C)cc1", "note": "[TSA, trichostatin A]", "values": [{"measurement": "effect on ddC-enhanced GLA activity", "setting": "[4]; synchronized cells, 500 μM ddC, 4 mM caffeine or 100 ng/ml TSA during recovery period", "result": "eliminate the ability of 500 μM ddC to enhance GLA activity"}]}
{"compound": "COc1cc([C@@H]2c3cc4c(cc3[C@@H](O[C@@H]3O[C@@H]5CO[C@@H](C)O[C@H]5[C@H](O)[C@H]3O)[C@H]3COC(=O)[C@H]23)OCO4)cc(OC)c1O", "note": "[VP16, 4′-demethylepipodophyllotoxin-9-(4,6-O-ethylidene-beta-D-glucopyranoside)]", "values": [{"measurement": "percentage of cells in S phase by BrdU", "setting": "DLD-1-1 cells [2]; 24 hours, 1 mM HU or 3 μM VP16", "result": 56, "unit": "%"}, {"measurement": "cells in S-phase", "setting": "DLD-1-1 cells [3]; 24 hours, 1 mM HU or 3 μM VP16, FACS analysis", "result": 56, "unit": "%"}]}
{"compound": "CCCC(CCC)C(=O)O", "note": "[VPA, valproic acid]", "values": [{"measurement": "GLA activity versus untreated cells", "setting": "[4]; 5 μM VPA during recovery period", "result": "over 20 fold"}, {"measurement": "GLA activity", "setting": "[4]; 5 μM VPA during recovery period after transfection with 49T/gg", "result": "98.71 nM product per hour per unit p"}, {"measurement": "GLA activity over untreated cells", "setting": "[4]; [6]", "result": 25, "unit": "fold"}, {"measurement": "GLA activity versus cells treated identically without VPA", "setting": "[4]; [6]", "result": "more than eight-fold"}]}
{"compound": "O=c1[nH]cnc2c1ncn2[C@H]1CC[C@@H](CO)O1", "note": "[ddI, dideoxyinosine]", "values": [{"measurement": "BrdU uptake (cells actively incorporating DNA bases)", "setting": "DLD-1-1 cells [2]", "result": "no difference from non-treated cells"}, {"measurement": "cells in S phase", "setting": "DLD-1-1 cells [3]; [5]", "result": "does not show an increase in the number of cells in S phase"}, {"measurement": "effect on gene correction", "setting": "[1]; various dosages of ddI", "result": "no significant increase in gene correction; also recorded: statistically insignificant effect"}]}
{"compound": "NC(Cn1ccc(=O)c(O)c1)C(=O)O", "note": "(stereo not drawn) [mimosine]", "values": [{"measurement": "cells in S phase", "setting": "DLD-1-1 cells [3]; serum starvation + 0.1 mM mimosine, 8 hours after release", "result": 86, "unit": "%"}, {"measurement": "increase of proportion of cells in S phase versus asynchronous cells", "setting": "DLD-1-1 cells [3]; [7]", "result": 2.5, "unit": "fold"}, {"measurement": "increase of correction efficiency versus asynchronous cells", "setting": "[1]; [7]", "result": 2.5, "unit": "fold"}]}
{"compound": "COc1cc(C=O)ccc1O", "note": "[vanillin]", "values": [{"measurement": "effect on correction efficiency", "setting": "[1]; 1 mM vanillin, before or after electroporation, with or without ddC", "result": "no effect on correction efficiency; also recorded: does not inhibit gene repair activity"}, {"measurement": "effect on ddC-stimulated gene repair", "setting": "[1]; inhibitor added with ddC before electroporation (FIG. 20)", "result": "statistically unchanged"}]}
